The source of these data is US4753952A, “2-acyl-3-aminomethyl-1,2,3,4-tetrahydroquinolines” (Dr. Lo. Zambeletti S.p.A., priority 1985, dated 1988).

Assay [1] has as its target T1, k (Kappa) opioid receptor (Cavia porcellus, UniProt P41144).
T1 construct: fresh guinea pig brain homogenate; from tissue; host or cells: guinea pig whole brain without cerebellum, washed membrane homogenate
Put plainly: Radio receptor binding to k sites (tritiated Ethylketocyclazocine). The arrangement: species or system guinea pig. As for the experimental part: Radio receptor binding to μ and k sites is performed on fresh guinea pig brain homogenate prepared according to Kosterlitz.
(§1) […] brain without cerebellum is homogenized in 50 mM, Tris-buffer (pH 7.4 at 0° C.) and centrifuged at 49,000×g×10 min. The pellet is then resuspended in the same buffer, incubated at 37° C. for 45 min. and centrifuged again.
(§2) 1.9 ml of the final homogenate (1:100 in Tris-pH 7.4, 0° C.) is used for the binding assay.
The binding of tritiated Ethylketocyclazocine to brain homogenate is measured in the presence of 100 nanomolar D-Ala-D-LeuEnkephalin (DADLE) and 100 nanomolar DAGO, added to saturate the δ and μ opioid receptors respectively.
Final homogenate with solutions of the cold ligand and of the labelled ligand is incubated for 40 min at 25° C., filtered through Whatman GF/C glass filter discs and washed.
The radioactivity bound to the filters is counted by liquid scintillation spectrophotometry.
(§3) A concentration of radioligant near KD is used in the binding assays evaluating our compounds.

Assay [2] has as its system Mouse p-phenylquinone writhing. Description: Mouse p-phenylquinone writhing test. Type of assay: in vivo, mouse (male Charles River). The settings on record: p-phenylquinone 0.02% i.p. 20 min after dosing, animals completely protected in 8 min; for IN VIVO TESTS - ED50, Mouse p-phenylquinone writhing: s.c.; for ED50: Mus musculus, sc, read-out: IN VIVO TESTS - ED50, Mouse p-phenylquinone writhing. The method, then:
(§4) Inhibition of contraction in electrically stimulated rabbit vas deferens indicate Kappa receptor agonism.
Writhing test (According to Siegmund et al., Proc. Soc. Exptl. Biol. 95, 729/1957)
Male Charles River mice, average weight 26 g, are randomly distributed into groups of 10 and are dosed subcutaneously with compounds under test, dissolved in isotonic saline (20 ml.Kg^-1). The experiments are carried out in the presence of positive and negative controls. 20 min after the mice are injected intraperitoneally with p-phenylquinone 0.02%, 10 ml.Kg^-1, maintained at 37° C. in a water bath. The mice are placed in a perspex compartmented observation box and observed for a period of 8 min after injection of p-phenylquinone. The dose-response curve is obtained by basing observation on the all or none response.

In assay [3] the test system is Mouse tail flick. Description: Mouse tail flick test. The format is in vivo, mouse (male Charles River). The note with it: s.c., 30 min after dosing, mice doubling the initial reaction time; for ED50: Mus musculus, sc, 0.5 h, read-out: IN VIVO TESTS - ED50, Mouse tail flick. As for the experimental part:
as §4
Tail-flick test (Modified from the procedure published by D'Amour et al., J. Pharm. Exptl. Ther. 72, 74/1941)
Male Charles River mice, average weight 26 g, are used. Selection is carried out before beginning of experiments: only mice whose reaction time is less than 8 sec are used. They are randomly distributed into groups of 10 and dosed with compounds under test, with positive and negative controls being included.
Compounds under test are administered subcutaneously in isotonic saline in a volume of 20 ml.Kg^-1. 30 min later mice are placed again under heat source (Socrel apparatus) and reaction time is recorded.
Analgesic activity of the test compound is expressed as the percent number of mice doubling the initial time within a group. [formula]
(Thermal pain tests record how soon the animal reacts.)

Assay [4] addresses T2, μ receptor (Cavia porcellus, UniProt A0ACM8Q262).
T2 construct: 3H-DAGO (DAMGO) displacement
Put plainly: Radio receptor binding to μ sites (3H-DAGO). The settings on record: guinea pig brain homogenate without cerebellum, 25° C., 40 min, pH 7.4. As for the experimental part: Radio receptor binding to μ and k sites is performed on fresh guinea pig brain homogenate prepared according to Kosterlitz. (1981)
as §1, §2
Binding to μ sites (Magnan J., 1982):
^3 H [D-Ala^2, MePhe^4, Gly-ol^5 ] Enkephalin (^3 H-DAGO), an enkephalin analogue that binds selectively to μ receptor, is added to the biological substrate and incubated at 25° C. for 40 min., filtered through Whatman GF-C and washed with ice-cold Tris-buffer. The filters are then dried, solubilized in Filtercount and the radioactivity monitored. Non specific binding is determined in the presence of 10^-6 M Naloxone.
For the calculation of the kinetic parameters of the binding of labelled and unlabelled ligands, the equilibrium dissociation constant (KD), and the inhibition constant (Ki) and the maximum number of binding sites (B max) are determined from saturation curves and competition experiments (Hill 1910; Scatchard 1949; Cheng and Prusoff 1973; Gillan et al. 1980).
as §3

Each structure is given as a SMILES string. pKi: −log10 of the molar value. Structures can show the parent of a compound that is named as a salt. Where two headings read alike, the source gives them in different places.

T2 sequence (A0ACM8Q262 1-400): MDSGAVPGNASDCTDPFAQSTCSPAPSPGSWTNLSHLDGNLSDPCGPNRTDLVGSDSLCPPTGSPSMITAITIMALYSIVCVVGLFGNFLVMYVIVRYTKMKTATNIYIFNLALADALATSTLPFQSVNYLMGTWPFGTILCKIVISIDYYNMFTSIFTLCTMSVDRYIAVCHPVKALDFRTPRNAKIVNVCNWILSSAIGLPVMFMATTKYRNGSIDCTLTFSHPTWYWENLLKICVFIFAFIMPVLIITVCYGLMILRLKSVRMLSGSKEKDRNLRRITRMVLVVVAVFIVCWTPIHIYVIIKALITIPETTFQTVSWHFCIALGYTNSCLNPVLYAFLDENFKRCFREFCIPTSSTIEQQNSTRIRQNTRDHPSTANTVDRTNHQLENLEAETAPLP
T1 sequence (P41144 whole entry): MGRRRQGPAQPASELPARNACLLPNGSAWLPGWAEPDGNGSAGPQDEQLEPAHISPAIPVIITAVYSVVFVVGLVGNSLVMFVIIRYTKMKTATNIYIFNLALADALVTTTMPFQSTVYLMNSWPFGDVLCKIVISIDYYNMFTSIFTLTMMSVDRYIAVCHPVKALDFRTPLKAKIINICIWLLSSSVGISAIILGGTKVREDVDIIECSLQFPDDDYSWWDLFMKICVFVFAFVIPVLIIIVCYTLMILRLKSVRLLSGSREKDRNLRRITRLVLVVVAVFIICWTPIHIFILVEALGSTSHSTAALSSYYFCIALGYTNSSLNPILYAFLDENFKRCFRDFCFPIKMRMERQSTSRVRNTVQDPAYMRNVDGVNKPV

For the molecule `CN(C)C[C@H]1Cc2ccccc2CN1C(=O)Cc1ccc(Cl)c(Cl)c1` [Example 5, (R)-2-(3,4-dichlorophenyl)acetyl-3-dimethylaminomethyl-1,2,3,4-tetrahydroisoquinoline hydrochloride], the negative logarithm of the Ki (pKi) is 6.20 in assay [1] (guinea pig brain homogenate without cerebellum, tritiated Ethylketocyclazocine with 100 nM DADLE and 100 nM DAGO, 25° C., 40 min, read-out: RECEPTOR BINDING - Ki, k); 5.59 in assay [4]. In addition, the “IN VIVO TESTS - ED50, Mouse p-phenylquinone writhing” value in assay [2] is “N.E”. The “IN VIVO TESTS - ED50, Mouse tail flick” value in assay [3] is recorded as “N.E”.

Take `O=C(Cc1ccc(Cl)c(Cl)c1)N1Cc2ccccc2C[C@@H]1CN1CCCC1` [Example 2, (R)-2-(3,4-dichlorophenyl)acetyl-3-(1-pyrrolidinyl)methyl-1-2,3,4-tetrahydroisoquinoline hydrochloride]: the pKi in assay [1] is under 9.00; in assay [4], 5.85. Also, in assay [2], the “IN VIVO TESTS - ED50, Mouse p-phenylquinone writhing” value is recorded as “N.E”. The “IN VIVO TESTS - ED50, Mouse tail flick” value in assay [3] is “N.E”.

Regarding `CN(C)C[C@@H]1Cc2ccccc2CN1C(=O)Cc1ccc(Cl)c(Cl)c1` [Example 6, (S)-2-(3,4-dichlorophenylacetyl)-3-dimethylaminomethyl-1,2,3,4-tetrahydroisoquinoline hydrochloride], the pKi in assay [1] is 7.96; in assay [4] it was 5.97. In addition, the ED50 in assay [2] was determined as 2.05 mg/kg; in assay [3] it was 1.65 mg/kg.

Regarding `CN(C)CC1Cc2ccccc2CN1C(=O)Cc1ccc(Cl)c(Cl)c1` (racemic) [Example 4, (R,S)-2-(3,4-dichlorophenylacetyl)-3-dimethylaminomethyl-1,2,3,4-tetrahydroisoquinoline hydrochloride], the values for the negative logarithm of the Ki (pKi) in assay [1] and in assay [4] were 7.76 and 5.87, respectively. The figures for the ED50 in assay [2] and in assay [3] were 3.76 mg/kg and 7.2 mg/kg, respectively.

Regarding `O=C(Cc1ccc(Cl)c(Cl)c1)N1Cc2ccccc2C[C@H]1CN1CCCC1` [Example 3, (S)-2-(3,4-dichlorophenyl)acetyl-3-(1-pyrrolidinyl)methyl-1,2,3,4-tetrahydroisoquinoline hydrochloride], the values for the pKi in assay [1] and in assay [4] were 8.10 and 6.12, respectively. Also, the 50% effective dose (ED50) in assay [2] was found to be 1.43 mg/kg; in assay [3], 1.58 mg/kg.

As for `O=C(Cc1ccc(Cl)c(Cl)c1)N1Cc2ccccc2CC1CN1CCCC1` (racemic) [Example 1, (R,S)-2-(3,4-dichlorophenyl)acetyl-3-(1-pyrrolidinyl)methyl-1,2,3,4-tetrahydroisoquinoline hydrochloride], the pKi in assay [1] was 8.02; in assay [4] it was 6.02. Also, the 50% effective dose (ED50) in assay [2] was determined as 2.64 mg/kg; in assay [3], 3.12 mg/kg.

A word on the pKi: it is the Ki on a negative log10 scale, so that one unit is a factor of ten. A word on the ED50: it is the midpoint of the dose-response relation.
